The record followed here is US20150322033A1, “ANTIBACTERIAL AGENT” (priority 2012, published 2015).

Values after ≈ are worked out from the molar mass of the structure shown. Like-named read-outs stand apart in the source and are kept apart here.

Experiment [1] relates to S. aureus Mu50. The experiment can be described thus: microbe, parasite or virus in culture. It counts as cell-based, Staphylococcus aureus. To be noted: for MIC ratio: (MIC value for S. aureus FDA209P)/(MIC value for S. aureus Mu50); for MIC: Staphylococcus aureus. A digest of the protocol:
(§1)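 Overnight TSB cultures at 37 °C adjusted to A578 0.3, diluted 500-fold in CAMHB and mixed 1:1 with compound in CAMHB; static overnight incubation at 37 °C. MIC reported in mg/L; Mu50 NR-1 also tested in some runs.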

In experiment [2] the test system is S. aureus FDA209P (ATCC 6538P). The experiment in a line: microbe, parasite or virus in culture. It counts as cell-based, Staphylococcus aureus. To be noted: Staphylococcus aureus. A digest of the protocol: as §1
The mark [3] stands for this setting: MU50, read-out: MIC (mg/L) S. aureus Mu50, Example 2, Table 12.
Setting [4] is: Example 2, Table 12, read-out: MIC (mg/L) S. aureus FDA209P.
Where [5] appears, read: Example 3, Table 13, read-out: MIC (mg/L) FDA209P (w, w).

Consider `C[C@H]1COc2c(N3CCN(C)CC3)c(F)cc3c(=O)c(C(=O)O)cn1c23` [Levofloxacin, levofloxacin, reference compound], for which the MIC ratio in experiment [1] is given as 0.016. The MIC in experiment [1] (setting [3]) turned out to be 8 mg/L (≈ 22.1 µM); in experiment [2] (setting [4]), 0.125 mg/L (≈ 0.346 µM); in experiment [2] (setting [5]) it was 0.125 mg/L (≈ 0.346 µM).

`O=c1cc(-c2ccc(O)cc2)oc2cc(O)cc(O)c12` [No. 7, 4′,5,7-Trihydroxyflavone]: the MIC ratio is given as >32 in experiment [1] and ≥ 32 in experiment [1] (listed as apigenin). The MIC in experiment [1] (MU50, read-out: MIC (mg/L) Mu50, Example 1, Tables 1 to 10) was 4 mg/L (≈ 14.8 µM); in experiment [1] (setting [3]), 4 mg/L (≈ 14.8 µM); in experiment [2] (Example 1, Tables 1 to 10, read-out: MIC (mg/L) FDA209P), > 128 mg/L; in experiment [2] (setting [4]), > 128 mg/L; in experiment [2] (setting [5]), > 128 mg/L.
